Experimental data taken from ChEMBL document CHEMBL5528039, “Discovery of a Macrocyclic Influenza Cap-Dependent Endonuclease Inhibitor” (J Med Chem, 2024).
Active and inactive are the calls of the source. The calls are words filed in the database; no cut-off is given here.

Columns and labels:
Influenza A virus [1] = assay: Antiviral activity against Influenza A virus A/PR/8/34 (H1N1) infected in MDCK cells assessed as reduction in virus-induced cytopathic effect incubated for 5 days by CCK8 based microplate spectrophotometric analysis; format: functional, organism-based; conditions: 120 h; for EC90: time 5 day
[2] = Inhibition of influenza A virus A/WSN/33 (H1N1) RNA polymerase transfected in HEK293T/17 cells incubated for 24 hrs by dual luciferase reporter gene assay; format: cell-based; conditions: HEK293T/17, 24 h
Influenza B virus [3] = assay: Antiviral activity against Influenza B virus B/Florida/78/2015 infected in MDCK cells assessed as reduction in virus-induced cytopathic effect incubated for 5 days by CCK8 based microplate spectrophotometric analysis; format: functional, organism-based; conditions: B/Florida/78/2015, MDCK, 120 h; for EC90: time 5 day
CCRF-CEM = assay: Cytotoxicity against human CCRF-CEM cells incubated for 3 days by CellTiter-Glo assay; format: functional; conditions: 72 h, time 3 day
[4] = Volume of distribution at steady state in cynomolgus monkey at 0.25 mg/kg, iv measured after 24 hrs by LC-MS/MS analysis; format: ADME, organism-based, Macaca fascicularis; conditions: in vivo, read-out: Vdss
[5] = Metabolic stability in mouse liver microsomes assessed as intrinsic clearance at 1 uM measured upto 60 mins in presence of NADPH by LC-MS/MS analysis; format: ADME, Microsome; conditions: 1 h
[6] = Metabolic stability in dog liver microsomes assessed as intrinsic clearance at 1 uM measured upto 60 mins in presence of NADPH by LC-MS/MS analysis; format: ADME, Canis lupus familiaris, Microsome; conditions: 1 h
Influenza B virus [7] = assay: Potency index, ratio of baloxavir EC50 to test compound EC50 for antiviral activity against Influenza B virus B/Florida/78/2015 infected in MDCK cells assessed as reduction in virus-induced cytopathic effect incubated for 5 days by CCK8 based microplate spectrophotometric analysis; format: functional; conditions: time 5 day
MOLT-4 = assay: Cytotoxicity against human MOLT-4 cells incubated for 3 days by CellTiter-Glo assay; format: functional; conditions: MOLT-4, 72 h, time 3 day
HepG2 = assay: Cytotoxicity against human HepG2 cells incubated for 3 days by CellTiter-Glo assay; format: functional; conditions: HepG2, 72 h, time 3 day
[8] = Half-life in cynomolgus monkey at 0.25 mg/kg, iv measured after 24 hrs by LC-MS/MS analysis; format: ADME, organism-based, Macaca fascicularis; conditions: in vivo
Influenza A virus [9] = assay: Antiviral activity against Influenza A virus A/California/07/2009 (H1N1) infected in MDCK cells assessed as reduction in virus-induced cytopathic effect incubated for 5 days by CCK8 based microplate spectrophotometric analysis; format: functional, organism-based; conditions: 120 h; for EC90: time 5 day
[10] = Half-life in BALB/c mouse at 2 mg/kg, iv measured after 24 hrs by LC-MS/MS analysis; format: ADME, organism-based; conditions: in vivo
[11] = AUC (0 to last) in BALB/c mouse at 2 mg/kg, iv measured after 24 hrs by LC-MS/MS analysis; format: ADME, organism-based; conditions: in vivo
MRC5 = assay: Cytotoxicity against human MRC5 cells incubated for 3 days by CellTiter-Glo assay; format: functional; conditions: MRC5, 72 h, time 3 day
[12] = Half-life in Beagle dog at 0.25 mg/kg, iv measured after 24 hrs by LC-MS/MS analysis; format: ADME, organism-based, Canis lupus familiaris; conditions: in vivo
[13] = Protein binding in human plasma assessed as unbound fraction at 400 uM incubated for 4 hrs by LC-MS/MS analysis; format: ADME, cell-free
[14] = Clearance in Beagle dog at 0.25 mg/kg, iv measured after 24 hrs by LC-MS/MS analysis; format: ADME, organism-based, Canis lupus familiaris; conditions: in vivo
[15] = Selectivity index, ratio of CC50 for human MOLT-4 cells to EC50 for antiviral activity against Influenza B virus B/Lee/40 infected in MDCK cells; format: functional
[16] = Metabolic stability in human liver microsomes assessed as intrinsic clearance at 1 uM measured upto 60 mins in presence of NADPH by LC-MS/MS analysis; format: ADME, Microsome; conditions: 1 h
[17] = Clearance in BALB/c mouse at 2 mg/kg, iv measured after 24 hrs by LC-MS/MS analysis; format: ADME, organism-based; conditions: in vivo
[18] = AUC (0 to last) in cynomolgus monkey at 0.25 mg/kg, iv measured after 24 hrs by LC-MS/MS analysis; format: ADME, organism-based, Macaca fascicularis; conditions: in vivo
[19] = Metabolic stability in cynomolgus monkey liver microsomes assessed as intrinsic clearance at 1 uM measured upto 60 mins in presence of NADPH by LC-MS/MS analysis; format: ADME, Macaca fascicularis, Microsome; conditions: 1 h
[20] = Protein binding in dog plasma assessed as unbound fraction at 400 uM incubated for 4 hrs by LC-MS/MS analysis; format: ADME, cell-free, Canis lupus familiaris
HEK293 = assay: Cytotoxicity against HEK293 cells incubated for 3 days by CellTiter-Glo assay; format: functional; conditions: Homo sapiens, HEK293, 72 h; time 3 day
Influenza B virus [21] = assay: Potency index, ratio of baloxavir EC50 to test compound EC50 for antiviral activity against Influenza B virus B/Lee/40 infected in MDCK cells assessed as reduction in virus-induced cytopathic effect incubated for 5 days by CCK8 based microplate spectrophotometric analysis; format: functional; conditions: time 5 day
A-375 = assay: Cytotoxicity against human A-375 cells incubated for 3 days by CellTiter-Glo assay; format: functional; conditions: A-375, 72 h, time 3 day
Influenza A virus [22] = assay: Antiviral activity against Influenza A virus A/California/2/2014 (H3N2) infected in MDCK cells assessed as reduction in virus-induced cytopathic effect incubated for 5 days by CCK8 based microplate spectrophotometric analysis; format: functional, organism-based; conditions: 120 h; for EC90: time 5 day
[23] = Volume of distribution at steady state in BALB/c mouse at 2 mg/kg, iv measured after 24 hrs by LC-MS/MS analysis; format: ADME, organism-based; conditions: in vivo, read-out: Vdss
HEp-2 = assay: Cytotoxicity against human HEp-2 cells incubated for 3 days by CellTiter-Glo assay; format: functional; conditions: HEp-2, 72 h, time 3 day
[24] = Protein binding in cynomolgus monkey plasma assessed as unbound fraction at 400 uM incubated for 4 hrs by LC-MS/MS analysis; format: ADME, cell-free, Macaca fascicularis
[25] = Protein binding in mouse plasma assessed as unbound fraction at 400 uM incubated for 4 hrs by LC-MS/MS analysis; format: ADME, cell-free
Influenza B virus [26] = assay: Antiviral activity against Influenza B virus B/Lee/40 infected in MDCK cells assessed as reduction in virus-induced cytopathic effect incubated for 5 days by CCK8 based microplate spectrophotometric analysis; format: functional, organism-based; conditions: B/Lee/40, MDCK, 120 h; for EC90: time 5 day
[27] = Clearance in cynomolgus monkey at 0.25 mg/kg, iv measured after 24 hrs by LC-MS/MS analysis; format: ADME, organism-based, Macaca fascicularis; conditions: in vivo
[28] = Volume of distribution at steady state in Beagle dog at 0.25 mg/kg, iv measured after 24 hrs by LC-MS/MS analysis; format: ADME, organism-based, Canis lupus familiaris; conditions: in vivo, read-out: Vdss
H1-HeLa = assay: Cytotoxicity against human H1-HeLa cells incubated for 3 days by CellTiter-Glo assay; format: functional; conditions: 72 h, time 3 day
[29] = AUC (0 to last) in Beagle dog at 0.25 mg/kg, iv measured after 24 hrs by LC-MS/MS analysis; format: ADME, organism-based, Canis lupus familiaris; conditions: in vivo
COLO 205 = assay: Cytotoxicity against human COLO 205 cells incubated for 3 days by CellTiter-Glo assay; format: functional; conditions: COLO 205, 72 h, time 3 day
[30] = Prodrug conversion in BALB/c mouse assessed as Baloxavir Cmax at 5 mg/kg, po measured after 24 hrs by LC-MS/MS analysis; format: ADME, organism-based; conditions: in vivo
[31] = Prodrug conversion in BALB/c mouse assessed as Baloxavir AUC (0 to last) at 5 mg/kg, po measured after 24 hrs by LC-MS/MS analysis; format: ADME, organism-based; conditions: in vivo
Influenza A virus [32] = assay: Antiviral activity against Influenza A virus A/PR/8/34 infected in BALB/c mouse assessed as reduction in viral load in lungs at 5 mg/kg, po pre-infected with virus for 48 hrs followed by twice daily compound administration starting from day 2 and measured 1 hrs after last dose on day 5 by crystal violet staining based analysis; format: functional, organism-based; conditions: time 73.0 hrs
[33] = Prodrug conversion in BALB/c mouse assessed as Baloxavir half-life at 5 mg/kg, po measured after 24 hrs by LC-MS/MS analysis; format: ADME, organism-based; conditions: in vivo

Compound: CN1C(=O)c2c(O)c(=O)ccn2N2[C@@H](c3ccccc3)c3ccccc3OCC[C@H]12
- EC50 (Influenza A virus [1]): > 500 nM
- EC90 (Influenza A virus [1]): > 500 nM

Compound: CN1C(=O)c2c(O)c(=O)ccn2N2[C@H](c3ccccc3)c3cc(F)c(F)cc3OCC[C@@H]12
- EC50 [2]: 12.3 nM
- EC50 (Influenza B virus [3]): 0.9 nM
- EC90 (Influenza B virus [3]): 1.6 nM
- CC50 (CCRF-CEM): 6480 nM
- Vd [4]: 3.68 L/kg
- CLH [5]: 0.1106 mL/min/kg
- CLH [6]: 0.0138 mL/min/kg
- Ratio EC50 (Influenza B virus [7]): 3
- CC50 (MOLT-4): 4130 nM
- CC50 (HepG2): 5190 nM
- half-life [8]: 2.2 h
- EC50 (Influenza A virus [9]): 2.6 nM
- EC90 (Influenza A virus [9]): 4.2 nM
- half-life [10]: 1.2 h
- AUC(0-t) at 24 h [11]: 1.32 µM·h
- CC50 (MRC5): 20000 nM
- half-life [12]: 2.6 h
- fraction unbound at 4 h, 400 µM [13]: 0.103
- clearance [14]: 20.8 mL/min/kg
- Ratio CC50/EC50 [15]: >485
- CLint [16]: < 8.6 µL/min/mg
- clearance [17]: 57.4 mL/min/kg
- AUC(0-t) at 24 h [18]: 0.458 µM·h
- CLH [19]: < 0.013 mL/min/kg
- fraction unbound at 4 h, 400 µM [20]: 0.218
- CC50 (HEK293): 20300 nM
- Ratio EC50 (Influenza B virus [21]): 3
- EC50 (Influenza A virus [1]): 7.2 nM
- EC90 (Influenza A virus [1]): 12 nM
- CC50 (A-375): 13300 nM
- EC50 (Influenza A virus [22]): 1.2 nM
- EC90 (Influenza A virus [22]): 3.2 nM
- Vd [23]: 4.41 L/kg
- CC50 (HEp-2): 12400 nM
- fraction unbound at 4 h, 400 µM [24]: 0.382
- fraction unbound at 4 h, 400 µM [25]: 0.122
- EC50 (Influenza B virus [26]): 8.5 nM
- EC90 (Influenza B virus [26]): 16 nM
- clearance [27]: 20.8 mL/min/kg
- Vd [28]: 3.74 L/kg
- CC50 (H1-HeLa): 9770 nM
- AUC(0-t) at 24 h [29]: 0.576 µM·h
- CC50 (COLO 205): 7040 nM

Compound: CN1C(=O)c2c(O)c(=O)ccn2N2[C@H](c3ccccc3F)c3cc(F)c(F)cc3OCC[C@@H]12
- EC50 (Influenza A virus [1]): 11 nM
- EC90 (Influenza A virus [1]): 16 nM

Compound: CN1C(=O)c2c(O)c(=O)ccn2N2[C@H](c3ccccc3Br)c3cc(F)c(F)cc3OCC[C@@H]12 (racemic)
- EC50 (Influenza A virus [1]): 11 nM
- EC90 (Influenza A virus [1]): 18 nM

Compound: CC(C)N1C(=O)c2c(O)c(=O)ccn2N2[C@H](c3ccccc3)c3ccccc3OCC[C@@H]12 (racemic)
- EC50 (Influenza A virus [1]): 53 nM
- EC90 (Influenza A virus [1]): 105 nM

Compound: O=C1c2c(O)c(=O)ccn2N([C@@H]2c3ccccc3SCc3c2ccc(F)c3F)[C@@H]2COCCN12 [BALOXAVIR]
- EC50 [2]: 5.46 nM
- EC50 (Influenza B virus [3]): 4.8 nM
- EC90 (Influenza B virus [3]): 7.4 nM
- EC50 (Influenza A virus [9]): 1.4 nM
- EC90 (Influenza A virus [9]): 3 nM
- half-life [10]: 3.9 h
- AUC(0-t) at 24 h [11]: 1.35 µM·h
- fraction unbound at 4 h, 400 µM [13]: 0.083
- CLint [16]: < 8.6 µL/min/mg
- clearance [17]: 61.6 mL/min/kg
- EC50 (Influenza A virus [1]): 2.1 nM
- EC90 (Influenza A virus [1]): 4.6 nM
- EC50 (Influenza A virus [22]): 1.2 nM
- EC90 (Influenza A virus [22]): 1.8 nM
- Vd [23]: 14 L/kg
- fraction unbound at 4 h, 400 µM [25]: 0.153
- EC50 (Influenza B virus [26]): 21 nM
- EC90 (Influenza B virus [26]): 43 nM

Compound: COC(=O)OCOc1c2n(ccc1=O)N([C@@H]1c3ccccc3SCc3c1ccc(F)c3F)[C@@H]1COCCN1C2=O [BALOXAVIR MARBOXIL]
- Cmax [30]: 145 nM
- AUClast [31]: 0.88 µM·h
- Activity (Influenza A virus [32]): Active
- t1/2 [33]: 4.1 h
